Laboratory results taken from patent US10405547B2, “Substituted cyclic amides as herbicides” (FMC Corporation, priority 2015, dated 2019).

Experiments:
Type in all cases: in vivo
[1] = tested on: corn (Zea mays); test: Test A postemergence, corn; conditions: visual injury, 0 to 100 scale (0 no effect, 100 complete control), approximately 10 days
From the text: (§1) Test A Seeds of plant species selected from barnyardgrass (Echinochloa crus-galli), kochia (Kochia scoparia), ragweed (common ragweed, Ambrosia elatior), ryegrass, Italian (Lolium multiflorum), foxtail, giant (Setaria faberii), and pigweed (Amaranthus retroflexus), were planted into a blend of loam soil and sand and treated preemergence with a directed soil spray using test chemicals formulated in a non-phytotoxic solvent mixture which included a surfactant.
(§2) At the same time, plants selected from these weed species and also blackgrass (Alopecurus myosuroides), galium (catchweed bedstraw, Galium aparine), wheat (Triticum aestivum), and corn (Zea mays) were planted in pots containing the same blend of loam soil and sand and treated with postemergence applications of test chemicals formulated in the same manner. Plants ranged in height from 2 to 10 cm and were in the one- to two-leaf stage for the postemergence treatment. Treated plants and untreated controls were maintained in a greenhouse for approximately 10 days, after which time all treated plants were compared to untreated controls and visually evaluated for injury. Plant response ratings, summarized in Table A, are based on a 0 to 100 scale where 0 is no effect and 100 is complete control. A dash (-) response means no test result.

[2] = tested on: ryegrass, Italian (Lolium multiflorum); test: Test A preemergence, Italian ryegrass; conditions: 0 to 100 scale (0 no effect, 100 complete control)
From the text: as §1, §2

[3] = tested on: ragweed (common ragweed, Ambrosia elatior); test: Test A preemergence, ragweed; conditions: 0 to 100 scale (0 no effect, 100 complete control)
From the text: as §1, §2

[4] = tested on: foxtail, giant (Setaria faberii); test: Test A postemergence, giant foxtail; conditions: visual injury, 0 to 100 scale (0 no effect, 100 complete control), approximately 10 days
From the text: as §1, §2

[5] = tested on: barnyardgrass (Echinochloa crus-galli); test: Test A postemergence, barnyardgrass; conditions: visual injury, 0 to 100 scale (0 no effect, 100 complete control), approximately 10 days
From the text: as §1, §2

[6] = tested on: kochia (Kochia scoparia); test: Test A postemergence, kochia; conditions: visual injury, 0 to 100 scale (0 no effect, 100 complete control), approximately 10 days
From the text: as §1, §2

[7] = tested on: barnyardgrass (Echinochloa crus-galli); test: Test A preemergence, barnyardgrass; conditions: 0 to 100 scale (0 no effect, 100 complete control)
From the text: as §1, §2

[8] = tested on: kochia (Kochia scoparia); test: Test A preemergence, kochia; conditions: 0 to 100 scale (0 no effect, 100 complete control)
From the text: as §1, §2

[9] = tested on: pigweed (Amaranthus retroflexus); test: Test A preemergence, pigweed; conditions: 0 to 100 scale (0 no effect, 100 complete control)
From the text: as §1, §2

[10] = tested on: pigweed (Amaranthus retroflexus); test: Test A postemergence, pigweed; conditions: visual injury, 0 to 100 scale (0 no effect, 100 complete control), approximately 10 days
From the text: as §1, §2

[11] = tested on: foxtail, giant (Setaria faberii); test: Test A preemergence, giant foxtail; conditions: 0 to 100 scale (0 no effect, 100 complete control)
From the text: as §1, §2

[12] = tested on: wheat (Triticum aestivum); test: Test A postemergence, wheat; conditions: visual injury, 0 to 100 scale (0 no effect, 100 complete control), approximately 10 days
From the text: as §1, §2

[13] = tested on: ryegrass, Italian (Lolium multiflorum); test: Test A postemergence, Italian ryegrass; conditions: visual injury, 0 to 100 scale (0 no effect, 100 complete control), approximately 10 days
From the text: as §1, §2

[14] = tested on: blackgrass (Alopecurus myosuroides); test: Test A postemergence, blackgrass; conditions: visual injury, 0 to 100 scale (0 no effect, 100 complete control), approximately 10 days
From the text: as §1, §2

[15] = tested on: galium (catchweed bedstraw, Galium aparine); test: Test A postemergence, galium; conditions: visual injury, 0 to 100 scale (0 no effect, 100 complete control), approximately 10 days
From the text: as §1, §2

[16] = tested on: ragweed (common ragweed, Ambrosia elatior); test: Test A postemergence, ragweed; conditions: visual injury, 0 to 100 scale (0 no effect, 100 complete control), approximately 10 days
From the text: as §1, §2

SMILES | Plant response rating, Corn ([1]; 125 g ai/ha) | Plant response rating, Corn ([1]; 500 g ai/ha) | Plant response rating, Ryegrass, Italian ([2]; 125 g ai/ha) | Plant response rating, Ryegrass, Italian ([2]; 500 g ai/ha) | Plant response rating, Ragweed ([3]; 125 g ai/ha) | Plant response rating, Ragweed ([3]; 500 g ai/ha) | Plant response rating, Foxtail, Giant ([4]; 125 g ai/ha) | Plant response rating, Foxtail, Giant ([4]; 500 g ai/ha) | Plant response rating, Barnyardgrass ([5]; 125 g ai/ha) | Plant response rating, Barnyardgrass ([5]; 500 g ai/ha) | Plant response rating, Kochia ([6]; 125 g ai/ha) | Plant response rating, Kochia ([6]; 500 g ai/ha) | Plant response rating, Barnyardgrass ([7]; 125 g ai/ha) | Plant response rating, Barnyardgrass ([7]; 500 g ai/ha) | Plant response rating, Kochia ([8]; 125 g ai/ha) | Plant response rating, Kochia ([8]; 500 g ai/ha) | Plant response rating, Pigweed ([9]; 125 g ai/ha) | Plant response rating, Pigweed ([9]; 500 g ai/ha) | Plant response rating, Pigweed ([10]; 125 g ai/ha) | Plant response rating, Pigweed ([10]; 500 g ai/ha) | other results
O=C1NCC(c2cccc(Cn3cccn3)c2)C1C(=O)Nc1ccccc1F (stereo not drawn) [Compound 27] | 0 | 0 | 0 | 0 | 0 | 0 | 40 | 50 | 40 | 70 | 0 | 0 | 0 | 20 | 0 | 0 | 0 | 0 | 0 | 0 | Plant response rating, Foxtail, Giant ([11]; 125 g ai/ha): 20; Plant response rating, Foxtail, Giant ([11]; 500 g ai/ha): 30; Plant response rating, Wheat ([12]; 125 g ai/ha): 0; Plant response rating, Wheat ([12]; 500 g ai/ha): 0; Plant response rating, Ryegrass, Italian ([13]; 125 g ai/ha): 0; Plant response rating, Ryegrass, Italian ([13]; 500 g ai/ha): 0; Plant response rating, Blackgrass ([14]; 125 g ai/ha): 0; Plant response rating, Blackgrass ([14]; 500 g ai/ha): 0; Plant response rating, Galium ([15]; 125 g ai/ha): 0; Plant response rating, Galium ([15]; 500 g ai/ha): 0; Plant response rating, Ragweed ([16]; 125 g ai/ha): 0; Plant response rating, Ragweed ([16]; 500 g ai/ha): 0
O=C1NCC(c2cccc(Cn3cccn3)c2)C1C(=O)Nc1ccc(F)cc1F (stereo not drawn) [Compound 28] | 0 | 0 | 0 | 0 | 0 | 0 | 0 | 20 | 0 | 20 | 0 | 0 | 0 | 30 | 0 | 0 | 0 | 0 | 0 | 0 | Plant response rating, Foxtail, Giant ([11]; 125 g ai/ha): 0; Plant response rating, Foxtail, Giant ([11]; 500 g ai/ha): 30; Plant response rating, Wheat ([12]; 125 g ai/ha): 0; Plant response rating, Wheat ([12]; 500 g ai/ha): 0; Plant response rating, Ryegrass, Italian ([13]; 125 g ai/ha): 0; Plant response rating, Ryegrass, Italian ([13]; 500 g ai/ha): 0; Plant response rating, Blackgrass ([14]; 125 g ai/ha): 0; Plant response rating, Blackgrass ([14]; 500 g ai/ha): 0; Plant response rating, Galium ([15]; 125 g ai/ha): 0; Plant response rating, Galium ([15]; 500 g ai/ha): 0; Plant response rating, Ragweed ([16]; 125 g ai/ha): 0; Plant response rating, Ragweed ([16]; 500 g ai/ha): 0
O=C1NCC(c2cccc(Cn3cccn3)c2)C1C(=O)Nc1ccccc1Cl (stereo not drawn) [Compound 29] | 0 | 0 | 0 | 0 | 0 | 0 | 0 | 20 | 0 | 20 | 0 | 0 | 0 | 40 | 0 | 0 | 0 | 0 | 0 | 0 | Plant response rating, Foxtail, Giant ([11]; 125 g ai/ha): 0; Plant response rating, Foxtail, Giant ([11]; 500 g ai/ha): 40; Plant response rating, Wheat ([12]; 125 g ai/ha): 0; Plant response rating, Wheat ([12]; 500 g ai/ha): 0; Plant response rating, Ryegrass, Italian ([13]; 125 g ai/ha): 0; Plant response rating, Ryegrass, Italian ([13]; 500 g ai/ha): 0; Plant response rating, Blackgrass ([14]; 125 g ai/ha): 0; Plant response rating, Blackgrass ([14]; 500 g ai/ha): 0; Plant response rating, Galium ([15]; 125 g ai/ha): 0; Plant response rating, Galium ([15]; 500 g ai/ha): 0; Plant response rating, Ragweed ([16]; 125 g ai/ha): 0; Plant response rating, Ragweed ([16]; 500 g ai/ha): 0
O=C1NCC(c2cccc(Cn3cccn3)c2)C1C(=O)Nc1cccc(F)c1F (stereo not drawn) [Compound 30] | 0 | 0 | 0 | 0 | 0 | 0 | 30 | 50 | 20 | 60 | 0 | 0 | 0 | 50 | 0 | 0 | 0 | 0 | 0 | 0 | Plant response rating, Foxtail, Giant ([11]; 125 g ai/ha): 20; Plant response rating, Foxtail, Giant ([11]; 500 g ai/ha): 90; Plant response rating, Wheat ([12]; 125 g ai/ha): 0; Plant response rating, Wheat ([12]; 500 g ai/ha): 0; Plant response rating, Ryegrass, Italian ([13]; 125 g ai/ha): 0; Plant response rating, Ryegrass, Italian ([13]; 500 g ai/ha): 0; Plant response rating, Blackgrass ([14]; 125 g ai/ha): 0; Plant response rating, Blackgrass ([14]; 500 g ai/ha): 0; Plant response rating, Galium ([15]; 125 g ai/ha): 0; Plant response rating, Galium ([15]; 500 g ai/ha): 0; Plant response rating, Ragweed ([16]; 125 g ai/ha): 0; Plant response rating, Ragweed ([16]; 500 g ai/ha): 0
O=C1NCC(c2cccc(Cn3cncn3)c2)C1C(=O)Nc1ccccc1F (stereo not drawn) [Compound 31] | 0 | 0 | 0 | 0 | 0 | 0 | 0 | 0 | 0 | 0 | 0 | 0 | 0 | 0 | 0 | 0 | 0 | 0 | 0 | 0 | Plant response rating, Foxtail, Giant ([11]; 125 g ai/ha): 0; Plant response rating, Foxtail, Giant ([11]; 500 g ai/ha): 0; Plant response rating, Wheat ([12]; 125 g ai/ha): 0; Plant response rating, Wheat ([12]; 500 g ai/ha): 0; Plant response rating, Ryegrass, Italian ([13]; 125 g ai/ha): 0; Plant response rating, Ryegrass, Italian ([13]; 500 g ai/ha): 0; Plant response rating, Blackgrass ([14]; 125 g ai/ha): 0; Plant response rating, Blackgrass ([14]; 500 g ai/ha): 0; Plant response rating, Galium ([15]; 125 g ai/ha): 0; Plant response rating, Galium ([15]; 500 g ai/ha): 20; Plant response rating, Ragweed ([16]; 125 g ai/ha): 0; Plant response rating, Ragweed ([16]; 500 g ai/ha): 0
O=C1NCC(c2cccc(Cn3cncn3)c2)C1C(=O)Nc1cccc(F)c1F (stereo not drawn) [Compound 32] | 0 | 0 | 0 | 0 | 0 | 0 | 0 | 20 | 0 | 10 | 0 | 0 | 0 | 0 | 0 | 0 | 0 | 0 | 0 | 0 | Plant response rating, Foxtail, Giant ([11]; 125 g ai/ha): 0; Plant response rating, Foxtail, Giant ([11]; 500 g ai/ha): 40; Plant response rating, Wheat ([12]; 125 g ai/ha): 0; Plant response rating, Wheat ([12]; 500 g ai/ha): 0; Plant response rating, Ryegrass, Italian ([13]; 125 g ai/ha): 0; Plant response rating, Ryegrass, Italian ([13]; 500 g ai/ha): 0; Plant response rating, Blackgrass ([14]; 125 g ai/ha): 0; Plant response rating, Blackgrass ([14]; 500 g ai/ha): 0; Plant response rating, Galium ([15]; 125 g ai/ha): 0; Plant response rating, Galium ([15]; 500 g ai/ha): 40; Plant response rating, Ragweed ([16]; 125 g ai/ha): 0; Plant response rating, Ragweed ([16]; 500 g ai/ha): 0
